Measured values as given in PMC9228270, “Design, Synthesis, In Silico Studies and Inhibitory Activity towards Bcr-Abl, BTK and FLT3-ITD of New 2,6,9-Trisubstituted Purine Derivatives as Potential Agents for the Treatment of Leukaemia” (Pharmaceutics, 2022).
Where “and” joins values, the source holds several entries; their conditions need not be identical. Identical values can stand only once.

Legend:
[1] = test system: Ramos; test: Cytotoxicity assay (resazurin), Ramos; assay type: cell-based; conditions: Homo sapiens, 72 h, three independent experiments, range 0.1 to 25 µM
Protocol: (§1) Cytotoxicity assays for the purines were quantified using the resazurin method, a dye to measure redox reactions occurring in the mitochondria of live cells. The cells were treated by tested compounds (in triplicate, six different doses) for 72 h.

[2] = molecular target: Bcr-Abl1 (Homo sapiens, UniProt P00519); test: Recombinant kinase radioassay, Abl; assay type: biochemical; conditions: ATP 1 µM, at least three independent experiments, range 0.01–100 µM
[3] = test system: HL-60; test: Cytotoxicity assay (resazurin), HL-60; assay type: cell-based; conditions: Homo sapiens, 72 h, three independent experiments, range 0.1 to 25 µM
Protocol: as §1

[4] = test system: BTK signalling in Ramos cells; test: Immunoblotting of BTK signalling in anti-IgM-stimulated Ramos; assay type: cell-based; conditions: immunoglobulin M-activated Ramos cells, 4 h, dose-dependent
Protocol: (§2) Protein changes in the treated cells were analysed using immunoblotting. Briefly, cell lysates were separated on SDS-polyacrylamide gels and electroblotted onto nitrocellulose membranes. After blocking, overnight incubation with specific primary antibodies and incubation with peroxidase-conjugated secondary antibodies, the peroxidase activity was detected with Super-Signal West Pico reagents (Thermo Scientific, Waltham, MA, USA) using a CCD camera LAS-4000 (Fujifilm). The following specific antibodies were purchased from Cell Signalling: anti-FLT3 (clone 8F2), anti-phospho-FLT3 Y589/591 (clone 30D4), anti-STAT5 (clone D2O6Y), anti-phospho-STAT5 Y694, anti-ERK1/2, anti-phospho-ERK1/2 T202/Y204, anti-Akt (clone C67E7), anti-phospho-Akt S473 (clone D9E), anti-phospho-Bcr Y177, anti-CrkL (clone 32H4), anti-phospho-CrkL Y207, anti-BTK (clone C82B8), anti-phospho-BTK Y223, anti-PLCγ2, anti-phospho-PLCγ2 Y1217, and anti-PARP-1 (clone 46D11). Anti-α-tubulin (clone DM1A) was purchased from Sigma Aldrich.
(§3) Based on their inhibitory effects on recombinant kinases as well as cytotoxic effects in relevant cell line models, the purine derivatives 4i, 5b and 5j were selected for further experiments to confirm the expected molecular mechanism of action. The candidate compounds were tested to determine changes in signalling pathways downstream of the oncogenic kinases in cells. […]

[5] = molecular target: T1, Cdk-2/cyclin E (Homo sapiens, UniProt P24941); test: Recombinant kinase radioassay, Cdk-2/cyclin E; assay type: biochemical; conditions: ATP 15 µM, at least three independent experiments, range 0.01–100 µM
T1 construct: made in house
How it was run: (§4)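 Radiometric kinase assay: 0.05 µCi [γ-33P]ATP in HEPES pH 7.5 buffer with Mg2+/Mn2+, vanadate, DTT. Commercial BTK with 100 µM poly(Glu:Tyr 4:1), 15 µM ATP. In-house Cdk-2/cyclin E with 1 mg/mL histone H1, 15 µM ATP. H3PO4 stop, phosphocellulose capture, phosphorimager read.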

[6] = molecular target: T2, BTK (Homo sapiens, UniProt Q06187); test: Recombinant kinase radioassay, BTK; assay type: biochemical; conditions: recombinant kinase, radioassay, ATP 15 µM; at least three independent experiments, range 0.01–100 µM; read-out: IC50 BTK
T2 construct: purchased ProQinase
How it was run: as §4

[7] = molecular target: T3, FLT3-ITD (Homo sapiens, UniProt P36888, ITD); test: Recombinant kinase radioassay, FLT3-ITD; assay type: biochemical; conditions: recombinant kinase, radioassay; at least three independent experiments, range 0.01–100 µM; read-out: IC50 FLT3-ITD
T3 sequence (P36888 27-993): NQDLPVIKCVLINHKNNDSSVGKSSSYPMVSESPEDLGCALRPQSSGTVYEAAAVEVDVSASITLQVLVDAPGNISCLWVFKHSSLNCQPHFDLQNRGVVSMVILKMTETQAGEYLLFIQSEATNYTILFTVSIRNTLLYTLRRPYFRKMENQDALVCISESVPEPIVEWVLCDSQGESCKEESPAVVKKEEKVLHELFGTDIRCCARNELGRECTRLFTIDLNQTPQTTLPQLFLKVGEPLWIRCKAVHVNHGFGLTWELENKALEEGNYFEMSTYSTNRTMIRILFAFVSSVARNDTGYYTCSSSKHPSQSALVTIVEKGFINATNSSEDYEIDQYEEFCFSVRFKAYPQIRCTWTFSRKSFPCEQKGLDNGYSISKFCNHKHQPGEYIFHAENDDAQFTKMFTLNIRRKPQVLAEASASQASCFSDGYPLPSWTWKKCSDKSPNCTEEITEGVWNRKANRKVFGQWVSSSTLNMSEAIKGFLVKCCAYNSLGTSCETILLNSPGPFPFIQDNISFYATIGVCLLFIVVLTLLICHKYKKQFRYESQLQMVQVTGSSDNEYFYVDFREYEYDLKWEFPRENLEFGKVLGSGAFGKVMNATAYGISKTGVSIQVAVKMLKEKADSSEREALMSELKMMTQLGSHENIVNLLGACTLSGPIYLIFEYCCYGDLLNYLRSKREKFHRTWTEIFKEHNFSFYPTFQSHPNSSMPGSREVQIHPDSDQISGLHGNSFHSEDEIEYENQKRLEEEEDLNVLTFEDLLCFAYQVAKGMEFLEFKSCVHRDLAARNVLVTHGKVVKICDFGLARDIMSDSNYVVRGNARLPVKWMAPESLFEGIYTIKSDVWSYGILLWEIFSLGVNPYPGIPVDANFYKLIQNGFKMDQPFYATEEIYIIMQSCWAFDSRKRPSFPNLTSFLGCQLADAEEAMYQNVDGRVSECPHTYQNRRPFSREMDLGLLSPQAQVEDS
How it was run: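 FLT3-ITD kinase, purchased from ProQinase, was tested in a standard radioassay with 100 µM poly (Glu:Tyr; 4:1) substrate, 0.05 µCi [γ-^33P]ATP and test compound in buffer of 60 mM HEPES-NaOH pH 7.5, 3 mM MgCl2, 3 mM MnCl2, 3 µM Na orthovanadate, 1.2 mM DTT and 2.5 µg/50 µL PEG20.000. Phosphorylated substrate was separated on P-81 phosphocellulose and quantified with a FLA-7000 image analyser.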

[8] = test system: K562; test: Cytotoxicity assay (resazurin), K562; assay type: cell-based; conditions: Homo sapiens, 72 h, three independent experiments, range 0.1 to 25 µM
Protocol: as §1

[9] = test system: CEM; test: Cytotoxicity assay (resazurin), CEM; assay type: cell-based; conditions: Homo sapiens, CCRF-CEM, 72 h, three independent experiments, range 0.1 to 25 µM
Protocol: as §1

[10] = test system: MV4-11; test: Cytotoxicity assay (resazurin), MV4-11; assay type: cell-based; conditions: Homo sapiens, 72 h, three independent experiments, range 0.1 to 25 µM
Protocol: as §1

[11] = test system: caspase 3/7 activity in MV4-11 cells; test: Caspase-3/7 assay, MV4-11; assay type: cell-based; conditions: 24 h
Protocol: (§5) MV4-11 and K562 cells were kept in a 96-well plate were treated with increasing concentrations of compound 4i and 5b for 24 h. After this period, caspase-3/7 assay buffer (150 mM HEPES pH 7.4, 450 mM NaCl, 150 mM KCl, 30 mM MgCl2, 1.2 mM EGTA, 1.5% Nonidet P40, 0.3% CHAPS, 30% sucrose, 30 mM DTT, and 3 mM PMSF) containing 150 µM peptide substrate Ac-DEVD-AMC (Enzo Life Sciences, Farmingdale, NY, USA) was added, and after 2 h incubation, the fluorescence of AMC was measured using a Fluoroskan Ascent microplate reader (Labsystems) at 346 nm/442 nm (excitation/emission).

[12] = test system: MV4-11 cells; test: Flow cytometry cell cycle, MV4-11; assay type: cell-based; conditions: 24 h, sub-micromolar concentrations
Protocol: (§6) Cell cycle effects were measured using flow cytometric determination of DNA content. MV4-11 and K562 cells were treated with tested compounds for 24 h. After the staining with propidium iodide, the DNA content was analysed by flow cytometry using a 488 nm laser (BD FACS Verse with software BD FACSuite^TM, version 1.0.6.). The cell cycle distribution was analysed using ModFit LT (Verity Software House 5.0, Topsham, ME, USA).

[13] = test system: PARP-1 cleavage in MV4-11; test: Immunoblotting of PARP-1 cleavage, MV4-11; assay type: cell-based; conditions: MV4-11 cells, 4 h
Protocol: as §2, with “Anti-α-tubulin (clone DM1A) was purchased from Sigma Aldrich.” left out
(§7) Finally, we analysed the mechanism of cell death induced by the prepared compounds 4i and 5b. Proteolytic cleavage of PARP-1—a well-established protein involved in apoptosis—was analysed in K562 and MV4-11 treated with respective compounds for 4 h. […] The PARP-1 fragment was not detected in MV4-11 cells treated with 5b because the compound was not effective in inducing apoptosis after 4 h of treatment (Figure 14B).

[14] = test system: FLT3-ITD signalling in MV4-11 cells; test: Immunoblotting of FLT3-ITD-dependent pathway in MV4-11; assay type: cell-based; conditions: 4 h
Protocol: as §2, §3

[15] = test system: Bcr-Abl signalling in K562 cells; test: Immunoblotting of Bcr-Abl downstream signalling in K562; assay type: cell-based; conditions: 4 h
Protocol: as §2, §3

[16] = test system: PARP-1 cleavage in K562; test: Immunoblotting of PARP-1 cleavage, K562; assay type: cell-based; conditions: K562 cells, 4 h
Protocol: as §2, with “Anti-α-tubulin (clone DM1A) was purchased from Sigma Aldrich.” left out
as §7

[17] = test system: caspase 3/7 activity in K562 cells; test: Caspase-3/7 assay, K562; assay type: cell-based; conditions: 24 h, at 1 µM
Protocol: as §5

[18] = test system: K562 cells; test: Flow cytometry cell cycle, K562; assay type: cell-based; conditions: 24 h, sub-micromolar concentrations
Protocol: as §6

Bcr-Abl1, sequence (P00519 27-1130): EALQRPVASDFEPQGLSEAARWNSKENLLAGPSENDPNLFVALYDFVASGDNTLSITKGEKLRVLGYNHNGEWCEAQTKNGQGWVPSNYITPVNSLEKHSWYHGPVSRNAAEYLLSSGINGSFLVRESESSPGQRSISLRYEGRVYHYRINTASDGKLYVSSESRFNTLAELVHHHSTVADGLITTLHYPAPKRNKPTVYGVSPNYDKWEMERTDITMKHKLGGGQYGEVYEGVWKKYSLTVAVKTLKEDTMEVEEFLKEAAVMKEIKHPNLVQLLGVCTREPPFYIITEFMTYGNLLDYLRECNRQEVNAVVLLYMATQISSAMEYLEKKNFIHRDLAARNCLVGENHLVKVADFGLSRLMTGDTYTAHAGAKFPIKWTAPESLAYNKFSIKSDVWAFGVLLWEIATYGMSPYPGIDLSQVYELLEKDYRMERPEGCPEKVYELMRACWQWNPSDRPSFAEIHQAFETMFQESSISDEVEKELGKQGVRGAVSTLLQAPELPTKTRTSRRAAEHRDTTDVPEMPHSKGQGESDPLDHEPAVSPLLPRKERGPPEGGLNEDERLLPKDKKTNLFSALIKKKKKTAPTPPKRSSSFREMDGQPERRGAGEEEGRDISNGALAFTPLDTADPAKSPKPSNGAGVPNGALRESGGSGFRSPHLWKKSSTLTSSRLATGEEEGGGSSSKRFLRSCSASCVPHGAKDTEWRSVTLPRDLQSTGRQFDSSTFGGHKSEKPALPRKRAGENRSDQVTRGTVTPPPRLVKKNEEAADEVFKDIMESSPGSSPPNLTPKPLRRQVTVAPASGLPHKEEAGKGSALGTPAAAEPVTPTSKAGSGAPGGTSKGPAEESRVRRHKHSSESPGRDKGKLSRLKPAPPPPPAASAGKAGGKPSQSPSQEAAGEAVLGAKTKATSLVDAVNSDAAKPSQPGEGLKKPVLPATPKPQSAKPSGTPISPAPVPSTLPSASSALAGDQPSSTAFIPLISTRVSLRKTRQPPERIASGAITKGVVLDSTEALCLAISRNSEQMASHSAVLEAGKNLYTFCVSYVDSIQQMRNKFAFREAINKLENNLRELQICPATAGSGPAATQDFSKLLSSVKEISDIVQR
T2 sequence (Q06187 whole entry): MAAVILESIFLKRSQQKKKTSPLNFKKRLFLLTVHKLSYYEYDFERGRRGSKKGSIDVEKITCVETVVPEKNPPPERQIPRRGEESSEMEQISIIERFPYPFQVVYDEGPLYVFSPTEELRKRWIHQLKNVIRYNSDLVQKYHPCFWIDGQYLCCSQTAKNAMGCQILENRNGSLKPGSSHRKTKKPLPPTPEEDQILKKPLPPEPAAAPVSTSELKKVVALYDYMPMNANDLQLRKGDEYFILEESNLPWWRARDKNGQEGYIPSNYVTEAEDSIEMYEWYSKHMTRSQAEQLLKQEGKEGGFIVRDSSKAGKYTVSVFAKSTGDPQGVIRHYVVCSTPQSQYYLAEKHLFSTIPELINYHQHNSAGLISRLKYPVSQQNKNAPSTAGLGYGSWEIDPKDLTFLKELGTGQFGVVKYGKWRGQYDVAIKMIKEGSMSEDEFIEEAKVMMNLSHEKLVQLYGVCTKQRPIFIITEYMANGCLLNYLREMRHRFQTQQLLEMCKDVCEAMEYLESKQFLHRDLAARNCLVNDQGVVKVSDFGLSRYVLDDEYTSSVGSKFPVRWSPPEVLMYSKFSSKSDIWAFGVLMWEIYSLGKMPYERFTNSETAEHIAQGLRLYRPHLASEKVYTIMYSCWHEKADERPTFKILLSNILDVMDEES

CCCCCCCCn1cnc2c(Nc3ccccc3)nc(Nc3ccc(N4CCN(C)CC4)cc3)nc21 [Compound 5j, N^2-(4-(4-Methylpiperazin-1-yl)phenyl)-9-octyl-N^6-phenyl-9H-purine-2,6-diamine]
GI50 [1]: 14.2 ± 2.61 µM | IC50 [2]: > 100 µM | GI50 [3]: 1.25 ± 0.11 µM | Levels of phosphorylated BTK and downstream targets PLCγ2 and Akt [4]: decreased | IC50 [5]: 19 ± 1.55 µM | IC50 [6]: < 0.58 µM and 0.41 µM | IC50 [7]: 20.3 µM | GI50 [8]: 8.19 ± 0.06 µM | melting point: 171.3 to 173.5 °C | GI50 [9]: 23.6 ± 2.01 µM | GI50 [10]: 4.45 ± 1.48 µM

CC(C)CCn1cnc2c(Nc3cccc(F)c3)nc(Nc3ccc(N4CCN(C)CC4)cc3)nc21 [Compound 5b, N^6-(3-Fluorophenyl)-9-isopentyl-N^2-(4-(4-methylpiperazin-1-yl)phenyl)-9H-purine-2,6-diamine]
GI50 [1]: 18.7 ± 3.1 µM | IC50 [2]: > 50 µM | GI50 [3]: 2.04 ± 0.58 µM | Caspase 3/7 induction [11]: a higher concentration of 5b was required for caspase induction | Cell cycle effect [12]: effectively induced G1 arrest | IC50 [5]: 21.1 ± 1.91 µM | IC50 [6]: 3.78 ± 0.86 µM | IC50 [7]: 0.38 µM | GI50 [8]: 18.6 ± 3.73 µM | PARP-1 fragment [13]: not detected | GI50 [9]: > 25 µM | GI50 [10]: 2.89 ± 0.95 µM | Phosphorylation of STAT5 [14]: inhibited | Autophosphorylation of the oncogenic FLT3-ITD ([14]; increasing concentrations): clear suppression

CN1CCN(c2ccc(Nc3nc(Nc4ccc(C#N)cc4)c4ncn(CC5CC5)c4n3)cc2)CC1 [Compound 4i, 4-((9-(Cyclopropylmethyl)-2-((4-(4-methylpiperazin-1-yl)phenyl)amino)-9H-purin-6-yl)amino)benzonitrile]
Concentration from which autophosphorylation of Bcr (pBcr) is inhibited [15]: ≥ 0.08 µM | Level of phosphorylated STAT5 (pSTAT5) and CrkL (pCrkL) [15]: dose-dependently decreased | GI50 [1]: 1.49 ± 0.05 µM | IC50 [2]: 0.1 ± 0.03 µM | 89 kDa fragment of PARP-1 [16]: increased levels | Relative caspase 3/7 activity [17]: nearly five-fold increase | GI50 [3]: 3.17 ± 0.57 µM | IC50 [5]: 10.8 ± 1.6 µM | IC50 [6]: 0.91 ± 0.19 µM | IC50 [7]: 0.37 µM | GI50 [8]: 1.03 ± 0.21 µM | Cell cycle effect [18]: effectively induced G1 arrest | GI50 [9]: 1.85 ± 0.1 µM | GI50 [10]: 0.89 ± 0.07 µM
